Measurements from article PMC3862409 (International Journal for Parasitology, Drugs and Drug …, 2013).
Residue numbers refer to the chain shown, from its start. “Also recorded” adds a separate entry of the source.

Legend:
[1] = molecular target: T1, T. brucei hexokinase 1 (TbHK1), WT (Trypanosoma brucei brucei, UniProt Q38C42); assay: Coupled hexokinase assay; format: biochemical
T1 sequence (Q38C42 1-471): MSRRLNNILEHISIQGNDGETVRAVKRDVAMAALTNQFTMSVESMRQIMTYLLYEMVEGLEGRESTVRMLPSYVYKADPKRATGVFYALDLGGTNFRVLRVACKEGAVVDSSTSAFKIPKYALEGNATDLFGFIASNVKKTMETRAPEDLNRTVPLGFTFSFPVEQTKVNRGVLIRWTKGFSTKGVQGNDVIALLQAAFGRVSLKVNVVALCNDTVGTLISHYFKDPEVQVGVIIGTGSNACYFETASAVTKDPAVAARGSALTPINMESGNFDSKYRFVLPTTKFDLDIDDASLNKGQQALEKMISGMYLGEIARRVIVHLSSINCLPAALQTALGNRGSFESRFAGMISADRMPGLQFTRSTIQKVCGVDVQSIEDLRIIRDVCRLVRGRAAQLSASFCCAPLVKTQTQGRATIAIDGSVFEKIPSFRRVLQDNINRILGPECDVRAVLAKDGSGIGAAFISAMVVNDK

TbHK1 C212S = molecular target: T2, TbHK1 C212S (Trypanosoma brucei brucei, UniProt Q38C42, C212S); assay: Coupled hexokinase assay, TbHK1 Cys variant C212S; format: biochemical
T2 sequence (Q38C42 1-471 C212S): T1 sequence (Q38C42 1-471) with C212S

TbHK1 C242A = molecular target: T3, TbHK1 C242A (Trypanosoma brucei brucei, UniProt Q38C42, C242A); assay: Coupled hexokinase assay, TbHK1 Cys variant C242A; format: biochemical
T3 sequence (Q38C42 1-471 C242A): T1 sequence (Q38C42 1-471) with C242A

TbHK1 C369A = molecular target: T4, TbHK1 C369A (Trypanosoma brucei brucei, UniProt Q38C42, C369A); assay: Coupled hexokinase assay, TbHK1 Cys variant C369A; format: biochemical
T4 sequence (Q38C42 1-471 C369A): T1 sequence (Q38C42 1-471) with C369A

TbHK1 C401A = molecular target: T5, TbHK1 C401A (Trypanosoma brucei brucei, UniProt Q38C42, C401A); assay: Coupled hexokinase assay, TbHK1 Cys variant C401A; format: biochemical
T5 sequence (Q38C42 1-471 C401A): T1 sequence (Q38C42 1-471) with C401A

TbHK1 C402A = molecular target: T6, TbHK1 C402A (Trypanosoma brucei brucei, UniProt Q38C42, C402A); assay: Coupled hexokinase assay, TbHK1 Cys variant C402A; format: biochemical
T6 sequence (Q38C42 1-471 C402A): T1 sequence (Q38C42 1-471) with C402A

TbHK1 C445A = molecular target: T7, TbHK1 C445A (Trypanosoma brucei brucei, UniProt Q38C42, C445A); assay: Coupled hexokinase assay, TbHK1 Cys variant C445A; format: biochemical
T7 sequence (Q38C42 1-471 C445A): T1 sequence (Q38C42 1-471) with C445A

[2] = system: glucose-6-phosphate dehydrogenase (G6PDH); assay: Counterscreen for inhibition of G6PDH; format: biochemical
TbHK1 [3] = molecular target: T8, TbHK1 (Trypanosoma brucei brucei, UniProt Q38C42); assay: Native gel analysis of TbHK1 oligomerization; settings: data not shown
T8 sequence (Q38C42 1-471): T1 sequence (Q38C42 1-471)

TbHK1 [4] = molecular target: T8, TbHK1; settings: ref Sharlow et al., 2010b, cited from earlier work; for Inhibition of TbHK1: LOPAC screen, at 10 μM
T. brucei parasites = settings: ref Sharlow et al., cited from earlier work; for EC50: read-out: EC50 against parasites, unit inferred, 2010a,b; for Toxicity to parasites: 2010b
parasite G6-P levels = settings: after acute exposure; ref Sharlow et al., 2010a,b; cited from earlier work
[5] = system: HK from Plasmodium falciparum (PfHK); settings: ref Harris et al., 2013, cited from earlier work
[6] = system: human indoleamine 2,3-dioxygenase (IDO); settings: covalent modification of multiple Cys residues; ref Terentis et al., 2010; cited from earlier work
[7] = cited from earlier work

SMILES: O[C@@H](CS)[C@@H](O)CS (racemic) [DTT, dithiothreitol]
- Impact on enzyme activity ([1]; DTT alone, 100 mM): little impact on enzyme activity

SMILES: O=c1c2ccccc2[se]n1-c1ccccc1 [EbSe, 2-phenyl-1,2-benzisoselenazol-3(2H)-one]
- IC50 [1]: 350 ± 70 nM
- Reversibility of inhibition by dilution ([1]; 200-fold dilution of enzyme and inhibitor after pre-incubation): not reversible; also recorded: irreversible
- Rescue of enzyme activity by DTT added after inhibitor incubation ([1]; DTT 100 mM added after incubation with inhibitor): only modestly rescued enzyme activity
- Relief of inhibition by excess Mg2+ ([1]; Mg2+ at ~15-fold higher concentrations than standard reaction, data not shown): did not relieve EbSe inhibition
- Effect of pre-incubation of TbHK1 with DTT on inhibition ([1]; data not shown): prevented EbSe inhibition
- Effect of pre-incubation with MPB on inhibition ([1]; enzyme pre-incubated with MPB): did not appreciably alter EbSe inhibition
- Sensitivity of variant to inhibition (TbHK1 C212S): remained sensitive
- IC50 (TbHK1 C212S; read-out: EbSe IC50, relative to WT): < 350 nM
- IC50 (TbHK1 C242A): 550 ± 20 nM
- IC50 (TbHK1 C369A): 260 ± 20 nM
- IC50 (TbHK1 C401A): 290 ± 40 nM
- IC50 (TbHK1 C402A): 430 ± 110 nM
- IC50 (TbHK1 C445A): 520 ± 50 nM
- Inhibition of G6PDH in counterscreen [2]: ineffective
- Impact on oligomerization of TbHK1 (TbHK1 [3]): neither EbSe nor TCEP impact oligomerization
- Inhibition of TbHK1 (TbHK1 [4]): 88.1 ± 0.6%
- Mode of inhibition (TbHK1 [4]; with respect to ATP): mixed inhibitors
- EC50 (T. brucei parasites): 2900 ± 280 nM
- Toxicity to parasites (T. brucei parasites): toxic to parasites
- Effect on parasite G6-P levels (parasite G6-P levels): able to reduce parasite G6-P levels
- Potency against PfHK relative to TbHK1 ([5]; more potent on PfHK): ~10 fold
- Reversibility of PfHK inhibition by dilution [5]: completely relieved by dilution
- Inhibition of human IDO [6]: inhibited
- Toxicity to humans ([7]; human, in vivo): non-toxic
- Outcome of patients suffering stroke ([7]; ref Yamaguchi et al., 1998): improve the outcome

SMILES: O=C(O)CCP(CCC(=O)O)CCC(=O)O [TCEP, tris (2-carboxyethyl)phosphine]
- Impact on oligomerization of TbHK1 (TbHK1 [3]): neither EbSe nor TCEP impact oligomerization

SMILES: O=c1c2ccccc2sn1-c1ccccc1 [EbS, 2-phenyl-1,2-benzisothiazol-3(2H)-one]
- EC50 (T. brucei parasites): 30 ± 67 nM
- Toxicity to parasites (T. brucei parasites): toxic to parasites
- Effect on parasite G6-P levels (parasite G6-P levels): able to reduce parasite G6-P levels
- Reversibility of PfHK inhibition by dilution [5]: completely relieved by dilution

SMILES: O=C(O)c1cc[c]([Hg][Cl])cc1 [4-chloromercuribenzoic acid]
- Inhibition of TbHK1 (TbHK1 [4]): 84.7 ± 0.4%

SMILES: O=C(CCCCC1SCC2NC(=O)NC21)NCCCCC(NC(=O)CCN1C(=O)C=CC1=O)C(=O)O (stereo not drawn) [MPB, 3-(N-maleimidopropionyl)-biocytin]
- Impact on enzyme activity ([1]; MPB at concentrations up to 50 μM): did not impact enzyme activity
